# Earlier results, collected in patent US20060275294A1, “METHOD OF PREVENTION AND TREATMENT OF AGING, AGE-RELATED DISORDERS AND/OR AGE-RELATED MANIFESTATIONS INCLUDING ATHEROSCLEROSIS, PERIPHERAL VASCULAR DISEASE, CORONARY ARTERY DISEASE, OSTEOPOROSIS, ARTHRITIS, TYPE 2 DIABETES, DEMENTIA, ALZHEIMERS DISEASE AND CANCER” (priority 2002, published 2006).
# Like-named read-outs stand apart in the source and are kept apart here.
# B1: adiponectin: adiponectin (protein, UniProt Q15848 19-244, looked up)
# Adiponectin: ETTTQGPGVLLPLPKGACTGWMAGIPGHPGHNGAPGRDGRDGTPGEKGEKGDPGLIGPKGDIGETGVPGAEGPRGFPGIQGRKGEPGEGAYVYRSAFSVGLETYVTIPNMPIRFTKIFYNQQNHYDGSTGKFHCNIPGLYYFAYHITVYMKDVKVSLFKKDKAMLFTYDQYQENNVDQASGSVLLHLEVGDQVWLQVYGEGERNGLYADNDNDSTFTGFLLYHDTN
# Key:
# Rat VSMC = conditions: 50 microM, IL-6 stimulated; cited from earlier work
# STAT1 and STAT3 = conditions: cited from earlier work
# Yorkshire swine = conditions: 20 mg/kg/day, 5 months, cited from earlier work
# Wistar rats = conditions: cited from earlier work
# IL-6 = conditions: in vitro; cited from earlier work
# MM cells = conditions: cited from earlier work
# JB6 cell = conditions: cited from earlier work
# IKKbeta = IKKbeta (Homo sapiens, UniProt O14920); conditions: cited from earlier work
# [1] = tested on: three human pancreatic cancer cell types; conditions: cited from earlier work
# [2] = in vivo, sc; cited from earlier work
# [3] = tested on: aortic strips isolated from virgin and late pregnant Sprague-Dawley rats; conditions: cited from earlier work; for enhancement of Phe contraction: 1,000 pg/ml; for increase in active stress: 10^-5 M, endothelium-intact strips
# [4] = tested on: IL-1 beta, IL-6, and TNF-alpha; conditions: cited from earlier work
# [5] = tested on: subjects with type 2 diabetes associated with osteopenia; conditions: 200 mg/day for 2 weeks every 3 months, 1 yr; cited from earlier work
# [6] = tested on: cultured human astrocytes; conditions: cited from earlier work
# STAT3 and ERK1/2 = conditions: cited from earlier work
# myeloma cell lines = conditions: cited from earlier work
# [7] = molecular target: fAbeta(1-40) and fAbeta(1-42) (Homo sapiens, UniProt P05067); conditions: cited from earlier work; for fAbeta formation from Abeta(1-40) and Abeta(1-42): in vitro
# mice = conditions: mouse, in vivo; cited from earlier work
# Jurkat T cells = conditions: cited from earlier work
# [8] = tested on: in-patients with advanced (stage III) Huntington's disease; conditions: 6 months; cited from earlier work
# [9] = tested on: human prostate carcinoma PC-3 cell line; conditions: cited from earlier work
# [10] = tested on: human microvascular endothelial cells (EC); conditions: cited from earlier work
# [11] = tested on: human endothelial cells (EC); conditions: 100 ug/ml for DHA, EPA; 24 h supernatants, ELISA; cited from earlier work
# Male Wistar rats [12] = conditions: rats; cited from earlier work
# [13] = tested on: rats with adjuvant arthritic chronic pain; conditions: cited from earlier work
# [14] = tested on: rat primary astrocytes, microglia, and macrophages; conditions: cited from earlier work
# [15] = tested on: rat vascular smooth muscle cells; conditions: cited from earlier work
# rats = conditions: synthetic diet for 21 days; cited from earlier work
# Male Wistar rats [16] = conditions: administered to every diet group; cited from earlier work
# [17] = tested on: Primary adipocytes from pig subcutaneous adipose tissue; conditions: cited from earlier work
# Sequence of fAbeta(1-40) and fAbeta(1-42) (P05067 672-711 limits assumed): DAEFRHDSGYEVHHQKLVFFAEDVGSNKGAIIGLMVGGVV
# Sequence of IKKbeta (O14920 whole entry, species assumed): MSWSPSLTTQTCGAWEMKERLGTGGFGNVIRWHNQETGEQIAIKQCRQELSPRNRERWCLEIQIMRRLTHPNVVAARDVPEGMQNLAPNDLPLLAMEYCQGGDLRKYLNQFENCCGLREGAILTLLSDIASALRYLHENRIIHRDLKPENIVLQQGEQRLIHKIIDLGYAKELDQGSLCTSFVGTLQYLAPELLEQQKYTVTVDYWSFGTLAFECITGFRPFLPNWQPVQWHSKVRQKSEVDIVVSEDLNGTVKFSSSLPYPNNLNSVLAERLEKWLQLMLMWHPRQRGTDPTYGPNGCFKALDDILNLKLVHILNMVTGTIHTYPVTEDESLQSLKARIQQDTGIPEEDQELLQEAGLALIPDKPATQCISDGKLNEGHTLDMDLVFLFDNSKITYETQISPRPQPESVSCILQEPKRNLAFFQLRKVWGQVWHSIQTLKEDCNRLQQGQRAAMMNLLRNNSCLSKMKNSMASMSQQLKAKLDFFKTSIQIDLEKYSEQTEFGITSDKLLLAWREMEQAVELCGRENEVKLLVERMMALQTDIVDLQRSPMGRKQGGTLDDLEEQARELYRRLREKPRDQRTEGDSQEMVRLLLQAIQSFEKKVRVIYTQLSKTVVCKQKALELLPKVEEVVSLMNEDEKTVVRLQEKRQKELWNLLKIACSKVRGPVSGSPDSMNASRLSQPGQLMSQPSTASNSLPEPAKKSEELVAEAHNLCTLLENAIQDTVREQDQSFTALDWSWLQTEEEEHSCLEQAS
molecule,measurement,setting,value
N#C/C(=C/c1ccc(O)c(O)c1)C(=O)NCc1ccccc1 [AG490],DNA synthesis,Rat VSMC,near complete inhibition
same,STAT 3 activation and MCP-1 production,Rat VSMC,partially inhibited
same,CuLDL-induced enhancement of STAT1 and STAT3 Tyr-phosphorylation and DNA-binding activity,STAT1 and STAT3,markedly prevented
"CC(O)(P(=O)(O)O)P(=O)(O)O [EHDP, ethane-1-hydroxy-1,1-diphosphonate]","extent of lesions, ratio of intima to media",Yorkshire swine; vs HL diet only,significantly less
same,lesion calcium,Yorkshire swine,significantly less
same,ratio of lipid-rich necrotic debris area to area of media,Yorkshire swine,significantly smaller
"C[C@@H]1O[C@@H](OC[C@H]2O[C@@H](Oc3c(-c4ccc(O)c(O)c4)oc4cc(O)cc(O)c4c3=O)[C@H](O)[C@@H](O)[C@@H]2O)[C@H](O)[C@H](O)[C@H]1O [rutin, quercetin-3-O-glucose rhamnose]",mean plasma concentration of active metabolites (quercetin and isorhamnetin),"Wistar rats; OVX+R rats, HPLC",9.46 ± 1 µM
same,uterotrophic activity,"Wistar rats; rat, in vivo",devoid of any uterotrophic activity
"C[C@]12CC[C@@H]3c4ccc(O)cc4CC[C@H]3[C@@H]1CC[C@@H]2O [estradiol, 17beta-estradiol]",IL-6 protein and mRNA production,IL-6,inhibits
"COc1cc(/C=C/C(=O)CC(=O)/C=C/c2ccc(O)c(OC)c2)ccc1O [curcumin, diferuloylmethane]","adhesion to bone marrow stromal cells, cytokine secretion, viability of cells",MM cells; ex vivo treatment of patient MM cells,decrease
same,expression of NF-kappaB-regulated gene products incl. interleukin-6,MM cells; human MM cells,down-regulated
Oc1ccc(C=Cc2cc(O)cc(O)c2)cc1 [resveratrol],cell transformation,JB6 cell,inhibited cell transformation
same,activation of IKKbeta,IKKbeta,inhibit or suppress
Cc1ccc(NC(=O)c2ccc(CN3CCN(C)CC3)cc2)cc1Nc1nccc(-c2cccnc2)n1 [Gleevec],inhibition of proliferation,[1],ineffective
IL-6: interleukin-6 cytokine,adverse effects of subcutaneous administration,[2],"cardiac arrhythmias, hepatotoxicity"
same,enhancement of Phe contraction,[3]; pregnant rats,10.6±0.7 ×104 N/m2
same,enhancement of Phe contraction,[3]; virgin rats,7.5±0.4 ×104 N/m2
CO[C@H]1[C@@H](OC)C[C@H](C)[C@@H](OC)C2=CC(=O)C=C(NC(=O)/C(C)=C/C=C\[C@H](OC)[C@@H](OC(N)=O)/C(C)=C/[C@@H]1C)C2=O [herbimycin A],IC50,"[1]; three cell lines, read-out: mean IC(50) proliferation",1710 nM
same,"LPS-induced increase in IL-1 beta, IL-6, and TNF-alpha mRNA levels",[4]; 1.7 microM,completely or more than 80% blocked
same,LPS activation of NF-kappa B,[4],reduced
same,LPS-induced IL-6 protein synthesis and IL-6 bioactivity,[4],reduced to baseline levels
"O=P(O)(O)O[C@H]1[C@H](OP(=O)(O)O)[C@@H](OP(=O)(O)O)[C@H](OP(=O)(O)O)[C@@H](OP(=O)(O)O)[C@H]1OP(=O)(O)O [InsP6, inositol hexaphosphate]",cell transformation,JB6 cell,inhibited
CC(O)(P(=O)(O)O)P(=O)(O)O [etidronate],change in intima-media thickness (mean±SE),[5],−0.038±0.011 mm
"CCCC(=O)O[C@@H]1[C@@H](C)[C@@]2(O)[C@@H](C=C(CO)C[C@]3(O)C(=O)C(C)=C[C@@H]23)[C@@H]2C(C)(C)[C@]12OC(=O)CCC [PDBu, Phorbol 12, 13-dibutyrate]",increase of secretion of APPalpha over control,[6],2-3 fold
Cn1cncc1[C@@](N)(c1ccc(Cl)cc1)c1ccc2c(c1)c(-c1cccc(Cl)c1)cc(=O)n2C [R115777],phosphorylation of STAT3 and ERK1/2 induced by IL-6,STAT3 and ERK1/2; 10 and 5 microM,partially blocked
same,phosphorylation of STAT3 and ERK1/2 induced by IL-6,STAT3 and ERK1/2; 15 microM,totally blocked
same,growth of three myeloma cell lines,myeloma cell lines,significant and dose-dependent growth inhibition
same,apoptosis,myeloma cell lines; myeloma cells,significant and time-dependent apoptosis
"O=C(OC[C@H]1O[C@@H](OC(=O)c2cc(O)c(O)c(OC(=O)c3cc(O)c(O)c(O)c3)c2)[C@H](OC(=O)c2cc(O)c(O)c(OC(=O)c3cc(O)c(O)c(O)c3)c2)[C@@H](OC(=O)c2cc(O)c(O)c(OC(=O)c3cc(O)c(O)c(O)c3)c2)[C@@H]1OC(=O)c1cc(O)c(O)c(OC(=O)c2cc(O)c(O)c(O)c2)c1)c1cc(O)c(O)c(OC(=O)c2cc(O)c(O)c(O)c2)c1 [TA, tannic acid]",fAbeta formation from Abeta(1-40) and Abeta(1-42),[7],dose-dependently inhibited
same,EC50,"[7]; pH 7.5, 37 degrees C, read-out: effective concentrations (EC50) for formation, extension and destabilization of fAbetas",< 100 nM
C=C(CC[C@]12O[C@H](C(=O)O)[C@@](O)(C(=O)O)[C@](C(=O)O)(O1)[C@H](OC(=O)/C=C/[C@@H](C)C[C@@H](C)CC)[C@H]2O)[C@@H](OC(C)=O)[C@H](C)Cc1ccccc1 [squalestatin],anti-inflammatory effect,mice,did not have any anti-inflammatory effect
"Oc1cc(O)c2c(c1)OC(c1ccc(O)c(O)c1)C(O)C2 (single isomer, unassigned; (+)) [CT, (+)-catechin]",PMA-triggered increase in cell oxidants,"Jurkat T cells; 1.7-17.2 microM, 24 h preincubation",prevented
same,PMA-induced NF-kappaB binding activity and transactivation of IL-2,Jurkat T cells; pretreatment,decreased
"CC/C=C\C/C=C\C/C=C\C/C=C\C/C=C\CCCC(=O)OCC [ethyl-EPA, ethyl-ester of eicosapentaenoic acid]",orofacial component of the Unified Huntington's Disease Rating Scale,[8],improved
C=C(C)[C@@H]1CC=C(C(=O)O)CC1 [perillic acid],"IL-6- and OM-mediated effects (growth, resistance to etoposide and cisplatin)",[9],inhibited
CN(C)CCCn1cc(C2=C(c3c[nH]c4ccccc34)C(=O)NC2=O)c2ccccc21 [GF109203X],PDBu-increased secretion of APPalpha,[6],blocked
O=P([O-])(O)C(NC1CCCCCC1)P(=O)([O-])O.[Na+].[Na+] [incadronate disodium],activation of NF-kappaB and AP-1 and up-regulation of VEGF mRNA,[10]; AGE-exposed EC,significantly prevented
same,AGE-induced increase in DNA synthesis and tube formation,[10],completely inhibit
Lavendustin,inhibition of proliferation,[1],ineffective
"S=C=NCCc1ccccc1 [PEITC, phenethyl isothiocyanate]",cell transformation,JB6 cell,inhibited cell transformation
CCCCC/C=C\C/C=C\C/C=C\C/C=C\CCCC(=O)O [Arachidonic acid],production of IL-6 by unstimulated or stimulated EC,[11],ineffective
"CC(Cc1ccc(O)c(O)c1)C(C)Cc1ccc(O)c(O)c1 (stereo not shown) [NDGA, Nordihydroguaiaretic acid]",fAbeta formation from Abeta(1-40) and Abeta(1-42),[7],inhibit
Oc1cc(O)c2c(c1)O[C@H](c1cc(O)c(O)c(O)c1)[C@H](O)C2 [Epigallocatechin],myocardial ischemia reperfusion injury,Male Wistar rats [12],attenuates
"CC(C)Oc1ccc2c(=O)c(-c3ccccc3)coc2c1 [ipriflavone, 7-isopropoxyisoflavone]",analgesic effects,"[13]; 100 mg/kg/day oral, 2 weeks after start",Analgesic effects were observed
same,"synovitis, periosteal new bone formation and bone destruction","[13]; 3 weeks, females",improved
O=C([O-])Cc1ccccc1.[Na+] [sodium phenylacetate],LPS-mediated activation of NF kappa B,[14]; astrocytes,Inhibition
same,"LPS-induced expression of TNF-alpha, IL-1beta, and IL-6","[14]; rat primary astrocytes, microglia, macrophages",inhibited
same,LPS and cytokine-mediated production of NO and expression of iNOS,[14]; rat primary astrocytes,inhibit
CCOc1nc2cccc(C(=O)O)c2n1Cc1ccc(-c2ccccc2-c2nnn[nH]2)cc1 [CV11974],expression of IL-6 mRNA induced by Ang II,[15],completely blocked
vitamin E,endotoxin induced IL-6 concentration,rats,significantly lower
CNC[C@H](O)c1cccc(O)c1 [phenylephrine],increase in active stress,[3]; pregnant rats,4.2±0.3 ×104 N/m2
same,increase in active stress,[3]; virgin rats,5.1±0.3 ×104 N/m2
COc1ccc2c(c1)c(CC(=O)O)c(C)n2C(=O)c1ccc(Cl)cc1 [Indomethacin],inflammatory process in adjuvant arthritis,Male Wistar rats [16],strong inhibitory effect
B1,NF-kappaB activation and induction of IL-6 expression by LPS,"[17]; 30 microg/ml, LPS 10 microg/ml",suppressed
same,PPARgamma2 mRNA,[17],upregulation
